Like-named read-outs stand apart in the source and are kept apart here.
Experiments:
[1] = test system: Aβ40 in conditioned medium of cells stably expressing Amyloid Precursor Protein (APP); test: In vitro BACE cell-based assay (Aβ40 in conditioned medium, sandwich ELISA); conditions: read-out: HEK cell assay
Method in brief: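 Quantification relied on pAb40/6E10 sandwich ELISA with Europium fluorescence counts, and IC50 was fitted versus concentration.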

[2] = target: Beta Secretase enzyme (BACE) (Homo sapiens, UniProt P56817); test: In vitro enzymatic BACE FRET (fluorescence resonance energy transfer) assay; type: biochemical; conditions: average IC50, enzyme assay; read-out: BACE 1 FRET assay
Sequence of Beta Secretase enzyme (BACE) (P56817 46-501, species assumed): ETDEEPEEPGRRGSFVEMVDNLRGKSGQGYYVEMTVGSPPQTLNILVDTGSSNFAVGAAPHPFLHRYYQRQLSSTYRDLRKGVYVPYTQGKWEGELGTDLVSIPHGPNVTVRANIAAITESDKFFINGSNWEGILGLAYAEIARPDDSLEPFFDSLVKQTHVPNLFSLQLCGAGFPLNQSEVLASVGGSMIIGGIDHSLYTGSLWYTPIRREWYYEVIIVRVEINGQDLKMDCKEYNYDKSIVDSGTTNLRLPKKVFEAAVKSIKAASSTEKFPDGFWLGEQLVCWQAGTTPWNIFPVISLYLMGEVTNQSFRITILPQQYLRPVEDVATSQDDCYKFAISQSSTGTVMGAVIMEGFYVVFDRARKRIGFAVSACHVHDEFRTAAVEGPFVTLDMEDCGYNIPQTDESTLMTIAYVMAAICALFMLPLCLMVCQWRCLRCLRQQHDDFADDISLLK
Method in brief: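 A peptide bearing a fluorophore and quencher across the cleavage site serves as substrate at 50 nM. Reactions proceed one hour in acidic acetate buffer (0.05 M, pH 4.2) containing 10% DMSO final and 100 uM genapol, then are terminated with Tris and read fluorimetrically.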

[3] = Homo sapiens, HEK293, average IC50, HEK cells

Row | SMILES | IC50 [1, 3] [nM] | IC50 [2] [nM] | IC50 ([1]; average IC50, HEK cells) [nM]
1 | CC(C)(C#N)COc1ccc2c(c1)[C@@]1(COC(N)=N1)c1cc(Br)cc(F)c1O2 [Example 442, 3-(((4S)-2-amino-7′-bromo-5′-fluorospiro[1,3-oxazole-4,9′-xanthen]-2′-yl)oxy)-2,2-dimethylpropanenitrile] | 1810 | 152 | –
2 | Cn1cc(-c2cc(F)c3c(c2)[C@]2(COC(N)=N2)c2cc(OCC4(C)COC4)ccc2O3)cn1 [Example 444, (4S)-4′-fluoro-7′-((3-methyl-3-oxetanyl)methoxy)-2′-(1-methyl-1H-pyrazol-4-yl)spiro[1,3-oxazole-4,9′-xanthen]-2-amine] | 38.6 | 20 | –
3 | Cc1cc(-c2cc(F)c3c(c2)[C@]2(COC(N)=N2)c2cc(OCC4(C)COC4)ccc2O3)cnc1F [Example 445, (4S)-4′-fluoro-2′-(6-fluoro-5-methyl-3-pyridinyl)-7′-((3-methyl-3-oxetanyl)methoxy)spiro[1,3-oxazole-4,9′-xanthen]-2-amine] | 188 | 41.6 | –
4 | NC1=N[C@@]2(CO1)c1cc(-c3cncc(F)c3)ccc1Oc1c(F)cc(C3CCOCC3)cc12 [Example 448, (4S)-4′-fluoro-7′-(5-fluoro-3-pyridinyl)-2′-(tetrahydro-2H-pyran-4-yl)spiro[1,3-oxazole-4,9′-xanthen]-2-amine] | 7.7 | 2.4 | –
5 | CC1(C)C[C@@H](c2cc(F)c3c(c2)[C@]2(COC(N)=N2)c2cc(-c4cnccn4)ccc2O3)CCO1 [Example 449, (4S)-2′-((4S)-2,2-dimethyltetrahydro-2H-pyran-4-yl)-4′-fluoro-7′-(2-pyrazinyl)spiro[1,3-oxazole-4,9′-xanthen]-2-amine] | 20 | 3.7 | –
6 | CC1(C)C[C@H](c2cc(F)c3c(c2)[C@]2(COC(N)=N2)c2cc(-c4cnccn4)ccc2O3)CCO1 [Example 450, (4S)-2′-((4R)-2,2-dimethyltetrahydro-2H-pyran-4-yl)-4′-fluoro-7′-(2-pyrazinyl)spiro[1,3-oxazole-4,9′-xanthen]-2-amine] | 17.7 | 2.4 | –
7 | CC1(C)C[C@H](c2cnc3c(c2)[C@]2(COC(N)=N2)c2cc(-c4cccnc4F)ccc2O3)CCO1 [Example 453, (5S)-3-((4R)-2,2-dimethyltetrahydro-2H-pyran-4-yl)-7-(2-fluoro-3-pyridinyl)spiro[chromeno[2,3-b]pyridine-5,4′-[1,3]oxazol]-2′-amine] | 12.2 | 2.4 | –
8 | CC1(C#Cc2ccc3c(c2)[C@@]2(COC(N)=N2)c2cc(C4=CCOCC4)cnc2O3)COC1 [Example 462, (5S)-3-(3,6-dihydro-2H-pyran-4-yl)-7-((3-methyl-3-oxetanyl)ethynyl)spiro[chromeno[2,3-b]pyridine-5,4′-[1,3]oxazol]-2′-amine] | 18.9 | 5.9 | –
9 | CC(C)(C)C#Cc1ccc2c(c1)[C@@]1(COC(N)=N1)c1cc(N3CCOCC3)cnc1O2 [Example 464, (5S)-7-(3,3-dimethyl-1-butyn-1-yl)-3-(4-morpholinyl)spiro[chromeno[2,3-b]pyridine-5,4′-[1,3]oxazol]-2′-amine] | 69 | 12.8 | –
10 | Cc1cc(-c2ccc3c(c2)[C@@]2(COC(N)=N2)c2cc(C4=CCOCC4)cnc2O3)cnc1F [Example 467, (5S)-3-(3,6-dihydro-2H-pyran-4-yl)-7-(6-fluoro-5-methyl-3-pyridinyl)spiro[chromeno[2,3-b]pyridine-5,4′-[1,3]oxazol]-2′-amine] | 50.8 | 20.8 | –
11 | Cc1cc(-c2ccc3c(c2)[C@@]2(COC(N)=N2)c2cc(C#CC4(C)COC4)cnc2O3)cnc1F [Example 468, (5S)-7-(6-fluoro-5-methyl-3-pyridinyl)-3-((3-methyl-3-oxetanyl)ethynyl)spiro[chromeno[2,3-b]pyridine-5,4′-[1,3]oxazol]-2′-amine] | 28.7 | 7.4 | –
12 | CC1(C)C[C@H](c2cnc3c(c2)[C@]2(COC(N)=N2)c2cc(-c4cccnc4F)ccc2O3)CCO1 [Example 469, (5S)-3-((4R)-2,2-dimethyltetrahydro-2H-pyran-4-yl)-7-(2-fluoro-3-pyridinyl)spiro[chromeno[2,3-b]pyridine-5,4′-[1,3]oxazol]-2′-amine] | – | 2.8 | 13.9
13 | CC1(C)C[C@@H](c2cnc3c(c2)[C@]2(COC(N)=N2)c2cc(-c4cccnc4F)ccc2O3)CCO1 [Example 470, (5S)-3-((4S)-2,2-dimethyltetrahydro-2H-pyran-4-yl)-7-(2-fluoro-3-pyridinyl)spiro[chromeno[2,3-b]pyridine-5,4′-[1,3]oxazol]-2′-amine] | 14.9 | 3.3 | –
14 | CC1(C)C[C@H](c2cnc3c(c2)[C@]2(COC(N)=N2)c2cc(-c4cccc(C#N)c4)ccc2O3)CCO1 [Example 471, 3-((5S)-2′-amino-3-((4R)-2,2-dimethyltetrahydro-2H-pyran-4-yl)spiro[chromeno[2,3-b]pyridine-5,4′-[1,3]oxazol]-7-yl)benzonitrile] | – | 5.1 | 14

These reach a lower IC50 [2]. Values come first.

Row | IC50 [1, 3] [nM] | IC50 [2] [nM] | IC50 ([1]; average IC50, HEK cells) [nM] | SMILES
15 | 5.4 | 1.9 | – | Cc1cncc(-c2ccc3c(c2)[C@@]2(COC(N)=N2)c2cc(C4=CCOCC4)cc(F)c2O3)c1 [Example 446, (4S)-2′-(3,6-dihydro-2H-pyran-4-yl)-4′-fluoro-7′-(5-methyl-3-pyridinyl)spiro[1,3-oxazole-4,9′-xanthen]-2-amine]
16 | 5.1 | 1.1 | – | NC1=N[C@@]2(CO1)c1cc(-c3cncc(F)c3)ccc1Oc1c(F)cc(C3=CCOCC3)cc12 [Example 447, (4S)-2′-(3,6-dihydro-2H-pyran-4-yl)-4′-fluoro-7′-(5-fluoro-3-pyridinyl)spiro[1,3-oxazole-4,9′-xanthen]-2-amine]
17 | 10.3 | 0.5 | – | NC1=N[C@@]2(CO1)c1cc(-c3cccnc3F)ccc1Oc1c(F)cc(-c3ccnc(F)c3)cc12 [Example 451, (4S)-4′-fluoro-7′-(2-fluoro-3-pyridinyl)-2′-(2-fluoro-4-pyridinyl)spiro[1,3-oxazole-4,9′-xanthen]-2-amine]
18 | 3.2 | 0.9 | – | NC1=N[C@@]2(CO1)c1cc(-c3cc(Cl)cnc3F)ccc1Oc1ncc(C3=CCOCC3)cc12 [Example 454, (5S)-7-(5-chloro-2-fluoro-3-pyridinyl)-3-(3,6-dihydro-2H-pyran-4-yl)spiro[chromeno[2,3-b]pyridine-5,4′-[1,3]oxazol]-2′-amine]
19 | 2.2 | 0.6 | – | CC1(C#Cc2cnc3c(c2)[C@]2(COC(N)=N2)c2cc(-c4cc(Cl)cnc4F)ccc2O3)COC1 [Example 456, (5S)-7-(5-chloro-2-fluoro-3-pyridinyl)-3-((3-methyl-3-oxetanyl)ethynyl)spiro[chromeno[2,3-b]pyridine-5,4′-[1,3]oxazol]-2′-amine]
20 | 6.6 | 1.5 | – | NC1=N[C@@]2(CO1)c1cc(-c3cncc(F)c3)ccc1Oc1ncc(C3=CCOCC3)cc12 [Example 457, (5S)-3-(3,6-dihydro-2H-pyran-4-yl)-7-(5-fluoro-3-pyridinyl)spiro[chromeno[2,3-b]pyridine-5,4′-[1,3]oxazol]-2′-amine]
21 | 5.1 | 1.2 | – | CC1(C#Cc2cnc3c(c2)[C@]2(COC(N)=N2)c2cc(-c4cncc(F)c4)ccc2O3)COC1 [Example 458, (5S)-7-(5-fluoro-3-pyridinyl)-3-((3-methyl-3-oxetanyl)ethynyl)spiro[chromeno[2,3-b]pyridine-5,4′-[1,3]oxazol]-2′-amine]
22 | 6.2 | 2.2 | – | COc1cncc(-c2ccc3c(c2)[C@@]2(COC(N)=N2)c2cc(C4=CCOCC4)cnc2O3)c1 [Example 459, (5S)-3-(3,6-dihydro-2H-pyran-4-yl)-7-(5-methoxy-3-pyridinyl)spiro[chromeno[2,3-b]pyridine-5,4′-[1,3]oxazol]-2′-amine]
23 | 6.3 | 1.8 | – | COc1cncc(-c2ccc3c(c2)[C@@]2(COC(N)=N2)c2cc(C#CC4(C)COC4)cnc2O3)c1 [Example 461, (5S)-7-(5-methoxy-3-pyridinyl)-3-((3-methyl-3-oxetanyl)ethynyl)spiro[chromeno[2,3-b]pyridine-5,4′-[1,3]oxazol]-2′-amine]
24 | 11.1 | 1.7 | – | CC1(C)C[C@@H](c2cnc3c(c2)[C@]2(COC(N)=N2)c2cc(-c4cccc(Cl)c4)ccc2O3)CCO1 [Example 465, (5S)-7-(3-chlorophenyl)-3-((4S)-2,2-dimethyltetrahydro-2H-pyran-4-yl)spiro[chromeno[2,3-b]pyridine-5,4′-[1,3]oxazol]-2′-amine]
25 | 5.6 | 2.1 | – | CC1(C)C[C@@H](c2cnc3c(c2)[C@]2(COC(N)=N2)c2cc(-c4cncc(Cl)c4)ccc2O3)CCO1 [Example 466, (5S)-7-(5-chloro-3-pyridinyl)-3-((4S)-2,2-dimethyltetrahydro-2H-pyran-4-yl)spiro[chromeno[2,3-b]pyridine-5,4′-[1,3]oxazol]-2′-amine]
26 | 4.4 | 2.3 | – | CC1(C)C[C@@H](c2cnc3c(c2)[C@]2(COC(N)=N2)c2cc(-c4cccc(C#N)c4)ccc2O3)CCO1 [Example 472, 3-((5S)-2′-amino-3-((4S)-2,2-dimethyltetrahydro-2H-pyran-4-yl)spiro[chromeno[2,3-b]pyridine-5,4′-[1,3]oxazol]-7-yl)benzonitrile]
27 | 15.5 | 2.1 | – | CC1(C)C[C@H](c2cnc3c(c2)[C@]2(COC(N)=N2)c2cc(-c4cccc(Cl)c4)ccc2O3)CCO1 [Example 473, (5S)-7-(3-chlorophenyl)-3-((4R)-2,2-dimethyltetrahydro-2H-pyran-4-yl)spiro[chromeno[2,3-b]pyridine-5,4′-[1,3]oxazol]-2′-amine]

Source: patent US8883782B2, “Spiro-tetracyclic ring compounds as beta-secretase modulators and methods of use” (Amgen Inc., priority 2010, dated 2014)
